Source: US20170226139A1, “CRYSTALLINE SALTS OF (Z)-O-OCTADEC-9-EN-1-YL O,O-DIHYDROGEN PHOSPHOROTHIOATE” (priority 2013, published 2017)
Marks after values point to notes of the source that are not given here.

Tests used:
[1] = tested on: C57BL/6 murine Animal Model of GI-ARS; assay: Survival after partial body irradiation (tibial sparing), murine Animal Model of GI-ARS (Studies 4.1.4, 4.1.5, 4.1.8); type: in vivo, C57BL/6 mice; details: for Survival Day 10, Rx100 arm (survivors/animals) / Survival Day ≧30, Rx100 arm (survivors/animals) / Survival Advantage Day 10 / Survival Advantage Day ≧30: Murine (♀), start +24; for Survival Advantage Day 10 / Survival Advantage Day ≧30 / Survival advantage 0.3 mg/kg / Survival advantage 3 mg/kg / Survival advantage: vs vehicle; for Survival, 0.3 mg/kg / Survival, 3 mg/kg / Survival advantage 0.3 mg/kg / Survival advantage 3 mg/kg: Study 4.1.4, Phase 2 + 3; for Survival, 0.3 mg/kg / Survival, 3 mg/kg: q12 h × 6 from 24 h after PBI; for Survival advantage / Survival, Rx100 at 3 mg/kg/12 × 6: Study 4.1.8, Phase 1 + 2, female C57BL/6; for Survival advantage: 3 mg/kg/12 h × 6
Description: These Animal Model studies were all conducted using partial body irradiation (PBI) with tibial bone marrow sparing except the earliest study which was performed with Total Abdominal Irradiation (TAI). The male Rhesus macaque model was developed by MacVittie. The female inbred murine PBI GI-ARS Animal Model was developed by the inventors. […] Differences in radiation sensitivity by gender in rodent species are well appreciated. We are not aware of PBI GI-ARS models other than these that meet criteria required to conduct a prospective, blinded, controlled, randomized study of efficacy.
A synopsis from each of the completed three sequential efficacy studies in the C57BL/6 murine partial body irradiation model of GI-ARS is provided below. […] Study WBS 4.1.8 was a pilot study of the efficacy of Rx100 at the preferred dose and regimen. The latter two studies (4.1.5) and 4.1.8) were blinded, randomized and controlled. The former study was not blinded but was controlled and randomized (WBS 4.1.4).
Study was initiated on Feb. […] Experiments were started on Feb.
Phase 1 (n=32 per group per sex) was designed as an expanded pilot dose-ranging study (0.3, 1.0, 3.0, and 10 mg/kg) to select two Rx100 doses for additional testing in phases 2 and 3. Phases 2 and 3 (enrolled n=64 per group per gender) were conducted at the selected Rx100 doses (0.3 and 3.0 mg/kg) to ensure sufficient sample size to power an assessment of survival advantage. The latter study was conducted in two phases based on facility limitations (up to 120 animals can be handled readily in one radiation sequence). […] A higher radiation dose was used in Phases 2 and 3 and two intermediate doses selected empirically (0.3 and 3.0 mg/kg). The study was carried out to 30 days post irradiation in all phases. The primary endpoint in this study was survival at Day 10. The modified intent-to-treat primary study population was defined as those animals that survived anesthesia following irradiation. Survival advantage was calculated as the percent survival in the active arm minus the percent survival in the vehicle arm for males and females separately with pairwise comparison by Chi-Square as a test of significance without adjustment for multiple testing. Significance was declared at the 0.05 level (two-sided). […] See Kaplan-Meier FIG. 32.
The study was initiated on Apr. […] Experiments were started on Apr.
Under the study design, four radiation doses were selected for vehicle administration. […] The study was performed in female mice only. […] Animals were randomized but stratified by weight to assure equivalent weights in each arm. The study was conducted in two phases to assure adequate subject numbers based on limitations on the number of animals that can be processed per phase (120). The primary endpoint in this study was survival at Day 10 but the study was carried out to Day 30.

[2] = tested on: bone marrow cells (micronucleated PCEs); assay: In vivo rat bone marrow micronucleus assay; parameters: species or system Sprague-Dawley rats; details: 500 mg/kg single subcutaneous dose
[3] = tested on: Beagle dogs; assay: Single-dose subcutaneous toxicity in dogs; type: in vivo
Excerpt: One group of one male and one female Beagle dogs received single escalating subcutaneous doses of Rx100.Lysine at 10 and 1 (female)/1.52 (male) mg/kg. […] Parameters evaluated included clinical signs, body weight, and gross pathology. The male and female dog survived until scheduled necropsy on Day 15. Administration of Rx100 had no effect on body weight or general health of the animals. Noteworthy clinical observations were confined to skin and behavior effects. Both animals scratched at the dose site, likely contributing to observations of redness at the dose site. Swelling and a thickened/raised area were also observed during the observation period. Clinical observations were sufficient to warrant the injection of diphenhydramine. […] Following injection of the L-lysine component of the formulation at an independent site, redness, scratching, or swelling was not seen.

[4] = Rx Bio 415, 3 mg/kg (q12 × 6), 15.62-64 Gy
[5] = RxBio 414, 0.3 mg/kg (q12 × 6), 15.65-8 Gy
[6] = RxBio 414, 3 mg/kg (q12 × 6), 15.65-8 Gy
[7] = RxBio 418F, 3 mg/kg (q12 × 6), 15.55-67 Gy (pooled)
[8] = RxBio 418F, 3 mg/kg (q12 × 6), 15.55 Gy
[9] = RxBio 418F, 3 mg/kg (q12 × 6), 15.62 Gy
[10] = RxBio 418F, 3 mg/kg (q12 × 6), 15.67 Gy
[11] = Study 4.1.5, female, 3 mg/kg q12 h×6 starting 24 hours after PBI

SMILES: CCCCCCCC/C=C\CCCCCCCCOP(O)(O)=S [Rx100, (Z)—O-octadec-9-en-1-yl O,O-dihydrogen phosphorothioate]
- Survival Day 10, Rx100 arm (survivors/animals) [1, 4]: 18/32
- Survival Day ≧30, Rx100 arm (survivors/animals) [1, 4]: 9/32
- Survival Advantage Day 10 [1, 4]: 50%
- Survival Advantage Day ≧30 [1, 4]: 28%
- Survival Day 10, Rx100 arm (survivors/animals) [1, 5]: 29/60
- Survival Day ≧30, Rx100 arm (survivors/animals) [1, 5]: 20/60
- Survival Advantage Day 10 [1, 5]: 5%
- Survival Advantage Day ≧30 [1, 5]: 23%
- Survival Day 10, Rx100 arm (survivors/animals) [1, 6]: 41/64
- Survival Day ≧30, Rx100 arm (survivors/animals) [1, 6]: 23/64
- Survival Advantage Day 10 [1, 6]: 23%
- Survival Advantage Day ≧30 [1, 6]: 26%
- Survival Day 10, Rx100 arm (survivors/animals) [1, 7]: 52/105
- Survival Day ≧30, Rx100 arm (survivors/animals) [1, 7]: 42/105
- Survival Advantage Day 10 [1, 7]: 32%
- Survival Advantage Day ≧30 [1, 7]: 25%
- Survival Day 10, Rx100 arm (survivors/animals) [1, 8]: 16/34
- Survival Day ≧30, Rx100 arm (survivors/animals) [1, 8]: 13/34
- Survival Advantage Day 10 [1, 8]: 25%
- Survival Advantage Day ≧30 [1, 8]: 22%
- Survival Day 10, Rx100 arm (survivors/animals) [1, 9]: 21/36
- Survival Day ≧30, Rx100 arm (survivors/animals) [1, 9]: 17/36
- Survival Advantage Day 10 [1, 9]: 47%
- Survival Advantage Day ≧30 [1, 9]: 39%
- Survival Day 10, Rx100 arm (survivors/animals) [1, 10]: 15/35
- Survival Day ≧30, Rx100 arm (survivors/animals) [1, 10]: 12/35
- Survival Advantage Day 10 [1, 10]: 23%
- Survival Advantage Day ≧30 [1, 10]: 14%
- Survival, 0.3 mg/kg ([1]; Females, Day 10): 48.3% (29/60)
- Survival, 3 mg/kg ([1]; Females, Day 10): 64.1% (41/64)
- Survival advantage 0.3 mg/kg ([1]; Females, Day 10): 7.3%
- Survival advantage 3 mg/kg ([1]; Females, Day 10): 23.1%*
- Survival, 0.3 mg/kg ([1]; Females, Day 30): 33.3% (20/60)
- Survival, 3 mg/kg ([1]; Females, Day 30): 35.9% (23/41)
- Survival advantage 0.3 mg/kg ([1]; Females, Day 30): 23.5%*
- Survival advantage 3 mg/kg ([1]; Females, Day 30): 26.1%*
- Survival, 0.3 mg/kg ([1]; Males, Day 10): 38.2% (21/55)
- Survival, 3 mg/kg ([1]; Males, Day 10): 41.4% (24/58)
- Survival advantage 0.3 mg/kg ([1]; Males, Day 10): −2.2%
- Survival advantage 3 mg/kg ([1]; Males, Day 10): 1.0%
- Survival, 0.3 mg/kg ([1]; Males, Day 30): 12.7% (7/55)
- Survival, 3 mg/kg ([1]; Males, Day 30): 17.2% (10/58)
- Survival advantage 0.3 mg/kg ([1]; Males, Day 30): −17.1%
- Survival advantage 3 mg/kg ([1]; Males, Day 30): 12.6%
- increase in survival at Day 10 ([1]; Study 4.1.4, female, 0.3 mg/kg/12 h/6, not statistically significant): 7.3%
- survival advantage at Day 10 ([1]; Study 4.1.4, female, 3 mg/kg/12 h×6 starting 24 hours after PBI, statistically significant): 23.1%
- survival benefit by Day 30 ([1]; Study 4.1.4, female, both 0.3 mg/kg and 3 mg/kg): a benefit was seen
- survival benefit in male animals ([1]; Study 4.1.4, male): no survival benefit
- survival advantage at Day 10 [1, 11]: 50%
- survival advantage through Day 30 [1, 11]: 28%
- efficacy with delayed start of dosing ([1]; Study 4.1.5, female, dosing started ≧48 hours after radiation): Efficacy was not seen
- efficacy and toxicity in male mice ([1]; Study 4.1.5, male, 3 mg/kg q12 h×6): neither efficacy nor toxicity was seen
- Survival advantage ([1]; 15.55 Gy, Day 10): 24.9%*
- Survival advantage ([1]; 15.55 Gy, Day 30): 21.5%*
- Survival advantage ([1]; 15.62 Gy, Day 10): 47.2%*
- Survival advantage ([1]; 15.62 Gy, Day 30): 38.9%*
- Survival advantage ([1]; 15.67 Gy, Day 10): 22.9%*
- Survival advantage ([1]; 15.67 Gy, Day 30): 14.3%
- Survival, Rx100 at 3 mg/kg/12 × 6 ([1]; 15.55 Gy, Day 10): 47.1%
- Survival, Rx100 at 3 mg/kg/12 × 6 ([1]; 15.55 Gy, Day 30): 38.2%
- Survival, Rx100 at 3 mg/kg/12 × 6 ([1]; 15.62 Gy, Day 10): 58.3
- Survival, Rx100 at 3 mg/kg/12 × 6 ([1]; 15.62 Gy, Day 30): 47.2%
- Survival, Rx100 at 3 mg/kg/12 × 6 ([1]; 15.67 Gy, Day 10): 42.9%
- Survival, Rx100 at 3 mg/kg/12 × 6 ([1]; 15.67 Gy, Day 30): 34.3%
- survival advantage at Day 10 and Day 30 ([1]; Study 4.1.8, female, 3 mg/kg q12 h×6 starting at 24 hours after PBI): clinically and statistically significant survival advantage
- Day 10 survival ([1]; females, treatment administered starting at 24 hours after radiation): 56.3%
- survival ([1]; male mice, comparable group): 72%

SMILES: CCCCCCCC/C=C\CCCCCCCCOP(O)(O)=S [Rx100.L-Lysine, (Z)—O-octadec-9-en-1-yl O,O-dihydrogen phosphorothioate]
- Mean % MNPC (±SD) Male ([2]; harvest 24 hour): 0.09%
- Mean Ratio PCE:NCE (±SD) Male ([2]; harvest 24 hour): 0.52
- Mean % MNPC (±SD) Male ([2]; harvest 48 hour): 0.08%
- clinical observations at dose sites ([3]; 1 mg/kg dose): persistent scratching and swelling at dose sites
- macroscopic and microscopic findings at dose sites ([3]; 1 mg/kg dose): No remarkable findings
- tolerability of subcutaneous injection ([3]; Rx100 formulation, beagle dogs): not tolerated
- microscopic examination of injection site ([3]; injection site A (10 mg/kg), both animals): chronic-active inflammation with necrosis and vascular thrombus formation
- effect on body weight or general health ([3]; single escalating SC doses 10 and 1/1.52 mg/kg): no effect
